Read-outs that look alike come from different tables or passages of the source.
Columns and labels:
[1] = test system: MDA-MB-468 human breast adenocarcinoma; experiment: MDA-MB-468 CCK-8 proliferation assay; type: cell-based; conditions: MDA-MB-468 cells, 72 hr
Description: (§1) The following cancer cell lines were employed: A549 human lung carcinoma (ATCC, #CCL-185); BT-474 human breast carcinoma (ATCC, #HTB-20); MDA-MB-231 human breast adenocarcinoma (ATCC, #CRM−HTB-26); MDA-MB-468 human breast adenocarcinoma (ATCC, #HTB-132); MV-4-11 human acute myeloid leukemia (ATCC, #CRL-9591); and U-87 MG human glioblastoma (ATCC, #HTB-14). Cell lines were cultured essentially according to ATCC recommendations.
(§2) 3-fold serial dilutions of each test compound were prepared ranging from 20 μM to 1.02 nM.
(§3) % Inhibition=100−(D−B)/(S−B)*100%. • S: Absorbance of cells treated with DMSO • D: Absorbance of compound-treated cells • B: Absorbance of medium with DMSO without cells

[2] = test system: MDA-MB-231 human breast adenocarcinoma; experiment: MDA-MB-231 CCK-8 proliferation assay; type: cell-based; conditions: MDA-MB-231 cells, 72 hr
Description: as §1, §2, §3

HSP90α protein [3] = target: T1, HSP90α protein (Homo sapiens, UniProt P07900); experiment: HSP90α-binding FP (BODIPY) assay; conditions: FP competition with BODIPY-labeled RNK04010
T1 construct: purchased BPS Bioscience #50298
Outline: (§4)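 Fluorescence polarization measured competition with N-terminal human HSP90α, using either FITC-geldanamycin or BODIPY-labelled triazolone RNK04010 as tracer (5 nM final each). Compounds were tested in 2.5-fold dilutions from 20 μM to 5.2 nM, with incubation at 25 °C for 120 min (FITC) or 300 min (BODIPY).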

[4] = test system: A549 human lung carcinoma; experiment: A549 CCK-8 proliferation assay; type: cell-based; conditions: A549 cells, 72 hr
Description: as §1, §2, §3

[5] = test system: MV-4-11 human acute myeloid leukemia; experiment: MV-4-11 CCK-8 proliferation assay; type: cell-based; conditions: MV-4-11 cells, 72 hr
Outline: (§5)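 Cells grown per ATCC recommendations were treated with 3-fold serial compound dilutions from 20 μM to 1.02 nM. CCK-8 absorbance was converted to % inhibition against DMSO-treated cells, with cell-free medium containing DMSO as the blank.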

HSP90α protein [6] = target: T1, HSP90α protein; experiment: HSP90α-binding FP (FITC) assay; conditions: FP competition with FITC-geldanamycin
Outline: as §4

[7] = test system: U-87 MG human glioblastoma; experiment: U87 MG CCK-8 proliferation assay; type: cell-based; conditions: U-87 MG cells, read-out: U87MG CCK-8
Outline: as §5

ERBB2 = ERBB2 (HER2) flow cytometry protein degradation assay in BT-474 cells; type: cell-based, human; conditions: DC50, BT-474 cells, 24 hr
Outline: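 BT-474 cells trypsinised after compound treatment and stained with PE-conjugated anti-ERBB2 antibody, 30 min at 25° C in the dark, then fixed in 1% paraformaldehyde for flow cytometry. % inhibition = 100−(D−B)/(S−B)*100, using treated, untreated-stained and unstained cell fluorescence.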

MAPK7 [8] = target: T2, MAPK7 (Homo sapiens, UniProt Q13164); experiment: MAPK7 Western blot protein degradation assay in U-87 MG cells; type: cell-based; design: U-87 MG human glioblastoma cells, which express MAPK7; endogenous in cells; host or cells: U-87 MG; conditions: 48 hr
T2 sequence (Q13164 whole entry): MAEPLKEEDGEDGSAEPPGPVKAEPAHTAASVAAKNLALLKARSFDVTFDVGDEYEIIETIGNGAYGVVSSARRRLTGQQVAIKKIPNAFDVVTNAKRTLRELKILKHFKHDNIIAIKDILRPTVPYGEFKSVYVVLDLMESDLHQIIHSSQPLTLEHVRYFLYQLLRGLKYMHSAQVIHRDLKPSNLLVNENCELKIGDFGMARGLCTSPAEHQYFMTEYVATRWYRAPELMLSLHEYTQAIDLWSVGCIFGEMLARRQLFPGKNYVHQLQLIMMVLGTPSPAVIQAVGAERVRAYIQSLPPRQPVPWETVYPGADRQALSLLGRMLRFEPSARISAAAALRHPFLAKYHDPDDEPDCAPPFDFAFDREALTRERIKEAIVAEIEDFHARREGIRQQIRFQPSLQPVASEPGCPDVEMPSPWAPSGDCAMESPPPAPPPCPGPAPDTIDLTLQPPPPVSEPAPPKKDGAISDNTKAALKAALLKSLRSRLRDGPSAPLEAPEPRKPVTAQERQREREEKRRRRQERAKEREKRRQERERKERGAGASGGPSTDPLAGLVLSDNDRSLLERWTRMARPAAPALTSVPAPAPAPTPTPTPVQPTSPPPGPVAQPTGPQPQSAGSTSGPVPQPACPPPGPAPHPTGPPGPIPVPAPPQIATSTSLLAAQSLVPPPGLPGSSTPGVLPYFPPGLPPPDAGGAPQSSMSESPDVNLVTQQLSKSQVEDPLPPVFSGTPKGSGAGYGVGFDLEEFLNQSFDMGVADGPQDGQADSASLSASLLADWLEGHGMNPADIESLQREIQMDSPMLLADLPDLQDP
Outline: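 U-87 MG glioblastoma cells treated with compounds at various concentrations for 48 h at 37 °C. MAPK7 (ERK5) levels in protein-normalized lysates measured by Western blot with β-actin as loading reference, quantified by fluorescence imaging.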

MAPK7 [9] = target: T2, MAPK7; experiment: MAPK7 kinase assay (ADP-Glo); type: biochemical; design: purchased Carna Biosciences #04-146; conditions: ATP 340 μM
Description: The inhibition of MAPK7 kinase activity by test compounds was measured by the ADP-Glo Kinase Assay (Promega, #V6930), following the manufacturer's instructions, except as noted. 3-fold serial dilutions of each test compound were prepared ranging from 50 μM to 2.54 nM. Also, as a positive control, a 4-fold serial dilution of the MAPK7 inhibitor, XMD17-109 (MedChemExpress, #HY-15665) was prepared ranging from 10 μM to 0.04 nM. In brief, in 384-well plates, test compounds were added to the kinase reaction mix containing recombinant MAPK7 protein (Carna Biosciences, #04-146; 20 nM final concentration), myelin basic protein (SignalChem Biotech, #M42-54G; 0.1 mg/ml final concentration) and ATP (340 μM final concentration), then mixed by shaking and incubated with ADP-Glo Reagent and Kinase Detection Reagent. Luminescence was measured on a BioTek plate reader.
Lumpositive: The average ratio for 10 wells of positive controls (10 μM XMD17-109) across the plate.
Lumvehicle: The average ratio for 10 wells of negative controls (0.5% DMSO) across the plate.

SMILES | EC50 [1] | EC50 [2] | IC50 (HSP90α protein [3]) | EC50 [4] | EC50 ([5]; Homo sapiens, MV4-11) | IC50 (HSP90α protein [6]) | EC50 ([7]; Homo sapiens, U-87 MG, 72 h) | ERBB2 degradation (ERBB2) | MAPK7 degradation (30 nM) (MAPK7 [8]) | MAPK7 degradation (100 nM) (MAPK7 [8]) | MAPK7 degradation (1000 nM) (MAPK7 [8]) | MAPK7 degradation (300 nM) (MAPK7 [8]; 300 nM) | IC50 (MAPK7 [9]) | EC50 [5] | EC50 ([7]; 72 hr)
CCOc1cc(N2CCC(C(=O)N3CCC(N4CCN(Cc5ccc(-n6c(O)nnc6-c6cc(C(C)C)c(O)cc6O)cc5)CC4)CC3)CC2)ccc1Nc1ncc2c(n1)N(C)c1ccccc1C(=O)N2C [Compound 004, 2-((4-(4-(4-(4-(4-(3-(2,4-dihydroxy-5-isopropylphenyl)-5-hydroxy-4H-1,2,4-triazol-4-yl)benzyl)piperazin-1-yl)piperidine-1-carbonyl)piperidin-1-yl)-2-ethoxyphenyl)amino)-5,11-dimethyl-5H-benzo[e]pyrimido[5,4-b][1,4]diazepin-6(11H)-one] | < 100 nM | < 100 nM | 100 to 1000 nM | 100 to 1000 nM | < 100 nM | 100 to 1000 nM | < 100 nM | B (DC50 = 100-1000 nM) | C (< 33% degradation) | C (< 33% degradation) | A (>66% degradation) |  |  |  | 
CCOc1cc(N2CCC(C(=O)NCC3CCN(C(=O)C4CCN(Cc5ccc(-n6c(O)nnc6-c6cc(C(C)C)c(O)cc6O)cc5)CC4)C3)CC2)ccc1Nc1ncc2c(n1)N(C)c1ccccc1C(=O)N2C (stereo not shown) [Compound 010, N-((1-(1-(4-(3-(2,4-dihydroxy-5-isopropylphenyl)-5-hydroxy-4H-1,2,4-triazol-4-yl)benzyl)piperidine-4-carbonyl)pyrrolidin-3-yl)methyl)-1-(4-((5,11-dimethyl-6-oxo-6,11-dihydro-5H-benzo[e]pyrimido[5,4-b][1,4]diazepin-2-yl)amino)-3-ethoxyphenyl)piperidine-4-carboxamide] | > 1000 nM | > 1000 nM |  |  | < 100 nM | 100 to 1000 nM | 100 to 1000 nM | C (DC50 > 1000 nM) |  |  |  |  |  |  | 
CCOc1cc(N2CCC(C(=O)N3CCC(CN4CCN(Cc5ccc(-n6c(O)nnc6-c6cc(CC)c(O)cc6O)cc5)CC4)CC3)CC2)ccc1Nc1ncc2c(n1)N(C)c1ccccc1C(=O)N2C [Compound 013, 2-((2-ethoxy-4-(4-(4-((4-(4-(3-(5-ethyl-2,4-dihydroxyphenyl)-5-hydroxy-4H-1,2,4-triazol-4-yl)benzyl)piperazin-1-yl)methyl)piperidine-1-carbonyl)piperidin-1-yl)phenyl)amino)-5,11-dimethyl-5H-benzo[e]pyrimido[5,4-b][1,4]diazepin-6(11H)-one] | 100 to 1000 nM | 100 to 1000 nM |  |  | < 100 nM | 100 to 1000 nM | 100 to 1000 nM | B (DC50 = 100-1000 nM) | C (< 33% degradation) | C (< 33% degradation) | A (>66% degradation) |  |  |  | 
CCOc1cc(N2CCC(C(=O)N3CCC(N4CCN(c5ccc(-n6c(O)nnc6-c6cc(C(C)C)c(O)cc6O)cc5)CC4)CC3)CC2)ccc1Nc1ncc2c(n1)N(C)c1ccccc1C(=O)N2C [Compound 040, 2-((4-(4-(4-(4-(4-(3-(2,4-dihydroxy-5-isopropylphenyl)-5-hydroxy-4H-1,2,4-triazol-4-yl)phenyl)piperazin-1-yl)piperidine-1-carbonyl)piperidin-1-yl)-2-ethoxyphenyl)amino)-5,11-dimethyl-5,11-dihydro-6H-benzo[e]pyrimido[5,4-b][1,4]diazepin-6-one] | < 100 nM | < 100 nM | 100 to 1000 nM | 100 to 1000 nM | < 100 nM |  | 100 to 1000 nM |  | C (< 33% degradation) | B (33-66% degradation) | A (>66% degradation) | A (>66% degradation) |  |  | 
CCOc1cc(N2CCC(C(=O)N3CCC(CN4CCN(Cc5ccc(-n6c(O)nnc6-c6cc(C(C)C)c(O)cc6OC)cc5)CC4)CC3)CC2)ccc1Nc1ncc2c(n1)N(C)c1ccccc1C(=O)N2C [Compound 052, 2-((2-ethoxy-4-(4-(4-((4-(4-(3-hydroxy-5-(4-hydroxy-5-isopropyl-2-methoxyphenyl)-4H-1,2,4-triazol-4-yl)benzyl)piperazin-1-yl)methyl)piperidine-1-carbonyl)piperidin-1-yl)phenyl)amino)-5,11-dimethyl-5,11-dihydro-6H-benzo[e]pyrimido[5,4-b][1,4]diazepin-6-one] | > 1000 nM | > 1000 nM | > 1000 nM | > 1000 nM | > 1000 nM |  | > 1000 nM | C (DC50 > 1000 nM) |  |  |  |  | > 1000 nM |  | 
CCOc1cc(N2CCC(C(=O)NCCOCc3ccc(-n4c(O)nnc4-c4cc(C(C)C)c(O)cc4O)cc3)CC2)ccc1Nc1ncc2c(n1)N(C)c1ccccc1C(=O)N2C [Compound 053, N-(2-((4-(3-(2,4-dihydroxy-5-isopropylphenyl)-5-hydroxy-4H-1,2,4-triazol-4-yl)benzyl)oxy)ethyl)-1-(4-((5,11-dimethyl-6-oxo-6,11-dihydro-5H-benzo[e]pyrimido[5,4-b][1,4]diazepin-2-yl)amino)-3-ethoxyphenyl)piperidine-4-carboxamide] | < 100 nM | 100 to 1000 nM | 100 to 1000 nM |  |  |  |  |  |  |  |  |  |  | < 100 nM | 100 to 1000 nM
CCOc1cc(N2CCC(C(=O)N3CCC(CN4CCN(Cc5ccc(-n6c(C(=O)NC(C)C(F)(F)F)nnc6-c6cc(CC)c(O)cc6O)cc5)CC4)CC3)CC2)ccc1Nc1ncc2c(n1)N(S(C)(=O)=O)c1ccccc1C(=O)N2C.Cl (stereo not shown) [Compound 078, 4-(4-((4-((1-(1-(3-ethoxy-4-((5-methyl-11-(methylsulfonyl)-6-oxo-6,11-dihydro-5H-benzo[e]pyrimido[5,4-b][1,4]diazepin-2-yl)amino)phenyl)piperidine-4-carbonyl)piperidin-4-yl)methyl)piperazin-1-yl)methyl)phenyl)-5-(5-ethyl-2,4-dihydroxyphenyl)-N-(1,1,1-trifluoropropan-2-yl)-4H-1,2,4-triazole-3-carboxamide] |  |  | 100 to 1000 nM | 100 to 1000 nM |  |  | 100 to 1000 nM | B (DC50 = 100-1000 nM) |  |  |  |  | 100 to 1000 nM | < 100 nM | 
